Test results as given in patent US20200291018A1, “TAM KINASE INHIBITORS” (SYROS PHARMACEUTICALS, INC., priority 2017, published 2020).
pIC50: −log10 of the molar value. Counter-ions that a name gives are not always drawn.

Tests used:
AXL = molecular target: T1, AXL (Homo sapiens, UniProt P30530); assay: TR-FRET kinase activity assay, AXL; assay type: biochemical; conditions: ATP at Km, 60 minutes
T1 sequence (P30530 26-894): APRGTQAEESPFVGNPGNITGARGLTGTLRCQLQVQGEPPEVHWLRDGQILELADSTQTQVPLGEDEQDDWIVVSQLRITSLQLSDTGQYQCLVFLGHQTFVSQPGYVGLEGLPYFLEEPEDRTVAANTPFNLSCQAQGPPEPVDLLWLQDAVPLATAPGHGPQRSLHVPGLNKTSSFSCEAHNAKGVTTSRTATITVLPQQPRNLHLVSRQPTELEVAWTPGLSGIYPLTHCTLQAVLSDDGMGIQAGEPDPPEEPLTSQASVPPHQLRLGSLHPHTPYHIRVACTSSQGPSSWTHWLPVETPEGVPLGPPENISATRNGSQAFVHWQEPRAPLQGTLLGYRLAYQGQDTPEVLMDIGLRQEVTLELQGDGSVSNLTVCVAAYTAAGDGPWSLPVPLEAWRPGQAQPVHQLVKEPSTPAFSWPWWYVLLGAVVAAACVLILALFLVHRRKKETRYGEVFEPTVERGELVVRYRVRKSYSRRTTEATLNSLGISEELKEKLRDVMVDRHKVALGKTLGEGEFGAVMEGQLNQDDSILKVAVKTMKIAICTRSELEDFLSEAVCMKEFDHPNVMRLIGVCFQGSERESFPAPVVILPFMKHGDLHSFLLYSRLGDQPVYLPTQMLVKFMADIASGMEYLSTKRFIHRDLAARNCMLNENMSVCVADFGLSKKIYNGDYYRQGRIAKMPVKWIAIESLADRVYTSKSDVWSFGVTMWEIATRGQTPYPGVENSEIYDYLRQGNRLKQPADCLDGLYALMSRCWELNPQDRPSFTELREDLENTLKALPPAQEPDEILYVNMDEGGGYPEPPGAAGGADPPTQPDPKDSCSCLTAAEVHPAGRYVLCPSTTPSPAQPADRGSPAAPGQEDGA
Procedure: (§1) IC50 values for compound inhibition of AXL, FLT3, MERTK and TYRO3 activity were determined using a TR-FRET activity assay. A peptide substrate with a fluorescent label is phosphorylated on a tyrosine by each enzyme, where the now phosphorylated product is bound by a Europium-labeled antibody specific to that phosphorylation site. The proximity between the antibody and the substrate gives a signal known as TR-FRET. As the enzyme is inhibited by compound, less phosphorylated peptide product is made, causing a decrease in overall signal.
(§2) Activity assays were performed in a 384-well, small volume, black microplates in an active enzyme volume of 10 uL and final developed volume of 20 uL. Final assay conditions are 50 mM HEPES pH 7.5, 10 mM MgCl2, 1 mM EGTA, 0.01% Brij 35 and 1 mM DTT, all at RT. Enzyme, substrate-labeled peptide and compound are mixed, and then the reaction is initiated with the addition of ATP at Km concentration for each enzyme. The reaction is allowed to run 60 minutes and then quenched with a 12.5 mM EDTA (ethylenediamine tetraacetic acid) solution. The plate is then developed with the addition of Europium-labeled antibody for a final volume of 20 uL and is then incubated for 30 minutes in darkness. Plates are read in a PHERASTAR® plate reader. Data are analyzed in GraphPad PRISM.

TYRO3 = molecular target: T2, TYRO3 (Homo sapiens, UniProt Q06418); assay: TR-FRET kinase activity assay, TYRO3; assay type: biochemical; conditions: ATP at Km, 60 minutes
T2 sequence (Q06418 41-890): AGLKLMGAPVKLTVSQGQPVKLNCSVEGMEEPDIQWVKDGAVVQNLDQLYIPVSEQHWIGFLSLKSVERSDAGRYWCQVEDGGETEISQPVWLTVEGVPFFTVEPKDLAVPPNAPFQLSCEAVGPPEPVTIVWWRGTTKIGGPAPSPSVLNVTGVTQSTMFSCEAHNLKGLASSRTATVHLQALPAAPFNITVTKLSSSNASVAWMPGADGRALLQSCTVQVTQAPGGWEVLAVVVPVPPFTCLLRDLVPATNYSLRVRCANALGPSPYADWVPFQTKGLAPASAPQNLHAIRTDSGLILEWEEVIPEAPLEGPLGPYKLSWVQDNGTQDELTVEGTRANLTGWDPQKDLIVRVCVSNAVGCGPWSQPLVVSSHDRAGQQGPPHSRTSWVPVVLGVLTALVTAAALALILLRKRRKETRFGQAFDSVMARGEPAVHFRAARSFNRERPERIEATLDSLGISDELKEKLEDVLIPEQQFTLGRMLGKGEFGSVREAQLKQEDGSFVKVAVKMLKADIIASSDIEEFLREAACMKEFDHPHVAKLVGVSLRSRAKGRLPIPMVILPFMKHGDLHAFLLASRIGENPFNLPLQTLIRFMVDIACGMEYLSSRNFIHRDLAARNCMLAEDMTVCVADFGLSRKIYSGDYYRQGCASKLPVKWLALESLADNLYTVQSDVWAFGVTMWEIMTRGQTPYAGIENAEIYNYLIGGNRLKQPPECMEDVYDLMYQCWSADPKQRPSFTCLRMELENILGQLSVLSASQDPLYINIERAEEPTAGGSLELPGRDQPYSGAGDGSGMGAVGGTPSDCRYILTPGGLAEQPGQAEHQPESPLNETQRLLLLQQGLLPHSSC
Procedure: as §1, §2

SMILES | pIC50 (AXL) | pIC50 (TYRO3)
CCOc1ncc(CC2CCNCC2)c2nc(N[C@@H](C)CC)ncc12 [Compound 236] | 6.00 to 7.00 | 6.00 to 7.00
CC[C@H](C)Nc1ncc2c(OC3C[C@@H](C)O[C@@H](C)C3)ncc([C@H]3CC[C@H](O)CC3)c2n1 (stereo partly drawn) [Compound 275] | 5.00 to 6.00 | 6.00 to 7.00
CC[C@H](C)Nc1ncc2c(=O)n(C[C@H]3COCCN3C)cc([C@H]3CC[C@H](O)CC3)c2n1 [Compound 265] | 5.00 to 6.00 | 6.00 to 7.00
CC[C@H](C)Nc1ncc2c(OC3C[C@@H](C)O[C@@H](C)C3)ncc([C@H]3CC[C@H](O)CC3)c2n1 (stereo partly drawn) [Compound 247] | 5.00 to 6.00 | 6.00 to 7.00
CC[C@H](C)Nc1ncc2c(OCC(F)(F)F)ncc([C@H]3CC[C@H](O)CC3)c2n1 [Compound 245] | 6.00 to 7.00 | ≥ 7.00
CCc1ncc([C@H]2CC[C@H](O)CC2)c2nc(N[C@@H](C)CC)ncc12 [Compound 244] | 6.00 to 7.00 | 5.00 to 6.00
CC[C@H](C)Nc1ncc2c(OC3CCN(C)CC3)ncc([C@H]3CC[C@H](O)CC3)c2n1 [Compound 221] | 6.00 to 7.00 | 6.00 to 7.00
CCCC(C)Nc1ncc2c(=O)n(C3CCN(C4COC4)CC3)cc([C@H]3CC[C@H](O)CC3)c2n1 (stereo partly drawn) [Compound 201] | 6.00 to 7.00 | ≥ 7.00
CC(C)Nc1ncc2c(OC3CCOCC3)ncc(-c3cccc(CC(=O)O)c3)c2n1 [Compound 276] | 5.00 to 6.00 | 6.00 to 7.00
CC[C@H](C)Nc1ncc2c(Cl)ncc([C@H]3CC[C@H](O)CC3)c2n1 [Compound 230] | 6.00 to 7.00 | 6.00 to 7.00
O[C@H]1CC[C@H](c2cnc(OC3CCOCC3)c3cnc(N[C@H]4CCNC4)nc32)CC1 [Compound 277] | 5.00 to 6.00 | 5.00 to 6.00
CCC[C@@H](C)Nc1ncc2c(OC3CCNCC3)ncc([C@H]3CC[C@@H](O)CC3)c2n1 [Compound 204] | 6.00 to 7.00 | 6.00 to 7.00
COC(=O)c1ccc(Nc2ncc3c(OC4CCNCC4)ncc([C@H]4CC[C@H](O)CC4)c3n2)cc1 [Compound 272] | ≥ 7.00 | ≥ 7.00
CCCC(C)Nc1ncc2c(=O)n([C@H]3CCN(C)C[C@@H]3F)cc([C@H]3CC[C@H](O)CC3)c2n1 (stereo partly drawn) [Compound 199] | 5.00 to 6.00 | ≥ 7.00
CC[C@H](C)Nc1ncc2c(OC3CCN(C)CC3)ncc([C@H]3CC[C@H](O)CC3)c2n1 [Compound 239] | 6.00 to 7.00 | ≥ 7.00
CC[C@H](C)NC1=NC2C([C@H]3CC[C@H](O)CC3)=CN(C(C)C)C(=O)C2C=N1 (stereo partly drawn) [Compound 231] | 6.00 to 7.00 | ≥ 7.00
CC[C@H](C)Nc1ncc2c(=O)n(CC34CCC(N(C)C)(CC3)CC4)cc([C@H]3CC[C@H](O)CC3)c2n1 [Compound 264] | ≥ 7.00 | ≥ 7.00
C[C@@H](Nc1ncc2c(OC3CCNCC3)ncc([C@H]3CC[C@H](O)CC3)c2n1)c1ccccc1 [Compound 218] | 5.00 to 6.00 | 6.00 to 7.00
CCC(CC)Nc1ncc2c(OC3CCNCC3)ncc([C@H]3CC[C@H](O)CC3)c2n1 [Compound 228] | 6.00 to 7.00 | 6.00 to 7.00
CCCCC[C@H](C)Nc1ncc2c(=O)n(C3CCOCC3)cc([C@H]3CC[C@H](O)CC3)c2n1 [Compound 108] | 6.00 to 7.00 | ≥ 7.00

SMILES | pIC50 (AXL) | pIC50 (TYRO3)
CC[C@H](C)Nc1ncc2c(N3CC[C@@H](N(C)C)C3)ncc([C@H]3CC[C@H](O)CC3)c2n1 [Compound 222] | 6.00 to 7.00 | ≥ 7.00
CC[C@H](C)Nc1ncc2c(OC3CC(C)(C)NC(C)(C)C3)ncc([C@H]3CC[C@H](O)CC3)c2n1 [Compound 246] | 6.00 to 7.00 | ≥ 7.00
CCCCNc1cc2c(cn1)c(=O)n(C1CCNCC1)cc2[C@H]1CC[C@H](O)CC1 [Compound 109, 6-(butylamino)-4-((1r,4r)-4-hydroxycyclohexyl)-2-(piperidin-4-yl)-2,7-naphthyridin-1(2H)-one hydrochloride] | 6.00 to 7.00 | ≥ 7.00
CC(C)(C)Nc1ncc2c(OC3CCNCC3)ncc([C@H]3CC[C@H](O)CC3)c2n1 [Compound 268] | 6.00 to 7.00 | 6.00 to 7.00
CC(C)CNc1ncc2c(OC3CCNCC3)ncc([C@H]3CC[C@H](O)CC3)c2n1 [Compound 212] | 6.00 to 7.00 | ≥ 7.00
COC[C@H](C)Nc1ncc2c(OC3CC(C)(C)N(C)C(C)(C)C3)ncc([C@H]3CC[C@H](O)CC3)c2n1 [Compound 259] | ≥ 7.00 | ≥ 7.00
CC(C)Nc1ncc2c(OC3CCOCC3)ncc(-c3cccc(CC#N)c3)c2n1 [Compound 274] | 6.00 to 7.00 | 6.00 to 7.00
CC[C@H](C)Nc1ncc2c(=O)n(CC34CCC(O)(CC3)CC4)cc([C@H]3CC[C@H](O)CC3)c2n1 [Compound 257] | ≥ 7.00 | ≥ 7.00
Cc1ccc(Cl)cc1Nc1ncc2c(OC3CCNCC3)ncc([C@H]3CC[C@H](O)CC3)c2n1 [Compound 209] | 5.00 to 6.00 | ≥ 7.00
O[C@H]1CC[C@H](c2cnc(OC3CCNCC3)c3cnc(Nc4ccccc4F)nc32)CC1 [Compound 262] | 6.00 to 7.00 | ≥ 7.00
CC[C@H](C)Nc1ncc2c(=O)n(C3CCN(S(C)(=O)=O)CC3)cc([C@H]3CC[C@H](O)CC3)c2n1 [Compound 234] | 6.00 to 7.00 | ≥ 7.00
COC[C@H](C)Nc1ncc2c(O[C@H]3CC[C@H](O)CC3)ncc([C@H]3CC[C@H](O)CC3)c2n1 [Compound 260] | 6.00 to 7.00 | ≥ 7.00
CC[C@@H](C)Nc1ncc2c(OC3CCN(C)CC3)ncc([C@H]3CC[C@H](O)CC3)c2n1 [Compound 195] | 6.00 to 7.00 | < 5.00
CC[C@H](C)Nc1ncc2c(=O)n(-c3ccc(N)cc3)cc([C@H]3CC[C@H](O)CC3)c2n1 [Compound 271] | 5.00 to 6.00 | 6.00 to 7.00
CC[C@H](C)Nc1ncc2c(NC3CCOCC3)ncc([C@H]3CC[C@H](O)CC3)c2n1 [Compound 217] | 5.00 to 6.00 | ≥ 7.00
CC[C@H](C)Nc1ncc2c(O[C@H]3CC[C@H](N(C)C)C3)ncc([C@H]3CC[C@H](O)CC3)c2n1 [Compound 267] | ≥ 7.00 | ≥ 7.00
CC[C@H](C)Nc1ncc2c(=O)n(C3CCOCC3)cc([C@H]3CC[C@H](O)CC3)c2n1 [Compound 225] | 6.00 to 7.00 | ≥ 7.00
O[C@H]1CC[C@H](c2cnc(OC3CCNCC3)c3cnc(Nc4ccccc4)nc32)CC1 [Compound 210] | ≥ 7.00 | ≥ 7.00
Cc1cccc(Nc2ncc3c(OC4CCNCC4)ncc([C@H]4CC[C@H](O)CC4)c3n2)c1 [Compound 197] | ≥ 7.00 | ≥ 7.00
